Test results as given in publication PMC12574689, “Synthesis of novel SRPK1-targeting hybrid compounds incorporating antimetabolites for cancer therapy” (RSC Medicinal Chemistry, 2025).

Experiments:
[1] = test system: HeLa; test: MTT viability assay, HeLa; assay type: cell-based; settings: Homo sapiens, 48 h treatment, mean of three independent experiments
Method: (§1) To evaluate the cytotoxic effects of the hybrid compounds geo15 and geo140, we performed MTT assays on HeLa, K562, A549, HepG2, HT-29 and Caco2 cancer cell lines, as well as primary intestinal subepithelial myofibroblasts (SEMFs).
(§2) HeLa, K562, HT-29, Caco-2, HepG2 and A549 cancer cell lines were obtained from the American Type Culture Collection (ATCC). All cell lines were cultured at 37 °C with 5% CO2. HeLa, Caco-2, HepG2 and A549 cells were maintained in Dulbecco's modified Eagle medium (DMEM, PAN Biotech) supplemented with 10% FBS and antibiotics/antimycotics, while K562 cells were maintained in RPMI and HT-29 cells in McCoy's 5a medium (Biosera) with the same supplements.
(§3) All cells were seeded in 96-well plates (Corning, New York, USA) at density of 10^4 cells per well, except HeLa that were seeded at destiny of 2 × 10^3. After 24 hours, the cells were treated with increasing concentrations of the inhibitory compounds for 48 hours. Cytotoxic activity of parent and conjugate compounds was assessed by 3-(4,5-dimethylthiazol-2-yl)-2,5-diphenyltetrazolium bromide (MTT) assay, according to manufacturer's instructions. In brief, 100 μl of growth medium containing 0.5 mg ml^−1 MTT (Sigma-Aldrich, Darmstadt, Germany) were added to each well of a 96-well plate and incubated at 37 °C and 5% CO2 for 2 hours until the formation of visible intracellular purple crystals. Then, MTT-supplemented growth medium was discarded and 100 μl dimethyl sulfoxide (Sigma-Aldrich, Darmstadt, Germany) were added per well for solubilization of dye. Absorbance was then measured on a microplate reader (Diareader EL 800; Dialab, Wr. Neudorf, Austria) at 570 nm with a reference wavelength at 660 nm.

[2] = test system: K562; test: MTT viability assay, K562; assay type: cell-based; settings: Homo sapiens, 48 h treatment, mean of three independent experiments
Method: as §1, §2, §3

[3] = test system: A549; test: MTT viability assay, A549; assay type: cell-based; settings: Homo sapiens, 48 h treatment, mean of three independent experiments
Method: as §1, §2, §3

[4] = test system: HepG2; test: MTT viability assay, HepG2; assay type: cell-based; settings: Homo sapiens, 48 h treatment, mean of three independent experiments
Method: as §1, §2, §3

[5] = test system: HT-29; test: MTT viability assay, HT-29; assay type: cell-based; settings: Homo sapiens; HT-29, MTT, 48 h treatment, mean of three independent experiments
Method: as §1, §2, §3

[6] = test system: Caco2; test: MTT viability assay, Caco2; assay type: cell-based; settings: Homo sapiens, Caco-2, 48 h treatment, mean of three independent experiments
Method: as §1, §2, §3

[7] = test system: primary intestinal subepithelial myofibroblasts (SEMFs); test: MTT viability assay, primary SEMFs; assay type: cell-based; settings: Homo sapiens, 48 h treatment, mean of three independent experiments
Excerpt: as §1
Intestinal myofibroblast isolation: primary intestinal subepithelial myofibroblasts were isolated from freshly collected intestinal mucosa biopsies as previously described,[28] from healthy individuals undergoing endoscopy for reasons of surveillance, after obtaining written and informed consent. Briefly, 4–6 pieces of intestinal tissue were collected in ice-cold Hank's Balanced Salt Solution (HBSS; Biosera, Nuaille, France) containing Ca^2+/Mg^2+ supplemented with P/S/A/G: penicillin (100 U ml^−1), streptomycin (100 μg ml^−1), amphotericin (2.5 μg ml^−1) and gentamycin (50 μg ml^−1), followed by 15 minute washes with HBSS with and without Ca^2+/Mg^2+ to remove possible contaminants. Next tissue was de-epithelialized by a 15 minute incubation in HBSS without Ca^2+/Mg^2+ containing 1 mM dithiothreitol (DTT, Sigma-Aldrich, Darmstadt, Germany) followed by 3× 30 minute washes in HBSS supplemented with 1 mM ethylenediaminetetraacetic acid (EDTA, Sigma-Aldrich, Darmstadt, Germany) at 37 °C. Tissue was cultured in RPMI 1640 (PAN Biotech, Aidenbach, Germany) supplemented with 10% fetal bovine serum (FBS; Biosera, Nuaille, France) and P/S/A/G for as long as 30 days at 37 °C and 5% CO2. After colonies of myofibroblasts reached 30% confluency, cells were detached and consequently cultured in 75 cm^2 flasks in Dulbecco's modified Eagle medium (DMEM, 4.5 g l^−1 glucose; PAN Biotech, Aidenbach, Germany) with 10% fetal bovine serum and P/S/A.
as §3

[8] = test system: SRPK1 in HeLa cells; test: Immunofluorescence of SRPK1 subcellular localization; assay type: cell-based
Method: In a following step the effect of geo140 was tested on the subcellular distribution of SRPK1 in HeLa cells. To address this issue, a series of immunofluorescence experiments was performed to assess the effect of geo140, relative to its parent compounds, JH-VII-139-1 and 5-FU on SRPK1 localization.
Fig. 6 Fluorescent patterns of SRPK1 in HeLa cells treated with JH-VII-139-1, 5-FU, and geo140 (for the indicated concentrations and time periods). SRPK1 was detected using an anti-SRPK1 monoclonal antibody (Alexa488-green fluorescence) while nuclei were stained with PI (red fluorescence). Scale bar: 10 μm.
HeLa cells (3 × 10^4 cells per well) were seeded on glass coverslips in 24-well plates. After 24 hours, cells were treated with the indicated concentrations of inhibitors for 24 or 48 hours. Following incubation, samples were fixed with 4% paraformaldehyde in PBS for 20 minutes at room temperature. Paraformaldehyde was quenched with 100 mM Tris-HCl (pH 7.5), and cells were permeabilized with 0.2% Triton X-100 in PBS for 10 minutes. Blocking was performed with 0.5% fish skin gelatin in PBS. Cells were then probed with a primary antibody (anti-SRPK1 monoclonal, 1 : 100 dilution, BD Biosciences, San Jose, CA, USA) and a secondary antibody (Alexa488-conjugated goat anti-mouse, 1 : 400 dilution, Molecular Probes, Eugene, OR, USA), followed by DNA staining with propidium iodide, as previously described.[25] Coverslips were mounted with mounting medium (0.01% p-phenylenediamine and 50% glycerol in PBS) and visualized using a Nikon confocal microscope with EZ-C1 3.20 software.

[9] = target: T1, GST-SRPK1 (Homo sapiens, UniProt Q96SB4); test: In vitro kinase assay, GST-SRPK1; assay type: biochemical; settings: substrate GST-LBRNt(62–92), 25 μM ATP
T1 construct: made in house; host or cells: bacteria (pGEX-2T vector)
Method: (§4) The inhibitory activity of geo140 and JH-VII-139-1 against SRPK1 and SRPK2 was assessed using in vitro kinase assays (Fig. 5). […] The IC50 values summarized in Panel E indicate that both JH-VII-139-1 and the hybrid compound geo140 act as effective inhibitors of SRPK-mediated phosphorylation, with however, differential selectivity between SRPK1 and SRPK2.
(§5) Fig. 5 Phosphorylation of 1 μg GST-LBRNt(62–92) by 0.5 μg GST-SRPK1 or 0.5 μg GST-SRPK2 in the presence of increasing concentrations of geo140 (A and B, respectively) or in the presence of increasing concentrations of JH-VII-139-1 (C and D, respectively). Panel C was taken from a previous publication of the authors.[2] The samples were analyzed by SDS-PAGE on 12% gels, stained with Coomassie blue and autoradiographed. Only the relevant part of the autorad corresponding to the phosphorylated substrate is shown. E. IC50 values of geo140 and JH-VII-139-1 against GST-SRPK1 and GST-SRPK2.
(§6) Human SRPK1, SRPK2, and a turkey LBR N-terminal fragment (amino acids 62–92; LBRNt(62–92)) were expressed as GST-fusion proteins in bacteria using the pGEX-2T vector (Amersham Biosciences) as previously described.[15] […] Phosphorylated GST-LBRNt(62–92) was detected by autoradiography (Super RX film, Fujifilm). Incorporated radioactivity was quantified by scintillation counting of the excised SDS-PAGE gel bands.

[10] = target: T2, GST-SRPK2 (Homo sapiens, UniProt P78362); test: In vitro kinase assay, GST-SRPK2; assay type: biochemical; settings: substrate GST-LBRNt(62–92), 25 μM ATP
T2 construct: made in house; host or cells: bacteria (pGEX-2T vector)
Method: as §4, §5, §6

[11] = Chemostability in pH 5.2 and 7.4 buffers and DMEM (LC-ESI-MS); assay type: physicochemical; settings: 37 °C
Method: (§7) The stability of SRPK1-targeting conjugates geo15 and geo140 was assessed at pH 5.2 and 7.4, as well as in cell culture medium (DMEM) and human plasma. All experiments were conducted at 37 °C, with samples analysed by LC-ESI-MS at specific time points. […] The half-lives of the conjugates ranged from several minutes to several hours, is discussed below.
(§8) Chemical stability experiments were conducted using LC-MS Method 4, except for the
(§9) pH stability studies of compound geo15, which were performed using LC-MS Method
(§10) 3. Representative chromatograms are provided for each experiment. geo15:
(§11) Figure S16. Chemical stability assay LC chromatograms for geo15.
(§12) Figure S17. Chemical stability assay LC chromatograms for geo140.

[12] = Stability in human plasma (LC-ESI-MS); assay type: in vitro ADME; settings: 37 °C
Method: as §7, §8, §9, §10, §11, §12

[13] = test system: HeLa cells; test: Inverted phase-contrast microscopy of treated cells; assay type: cell-based; settings: 10 μM, phase-contrast microscope
Method: A similar morphology of geo140-treated cells was also observed using an inverted phase-contrast microscope.
Fig. 7 Microscopic view of control HeLa cells and treated with 10 μM geo140, taken at 10× or 40× magnification as indicated, using an inverted phase-contrast microscope.

T1 sequence (Q96SB4 whole entry): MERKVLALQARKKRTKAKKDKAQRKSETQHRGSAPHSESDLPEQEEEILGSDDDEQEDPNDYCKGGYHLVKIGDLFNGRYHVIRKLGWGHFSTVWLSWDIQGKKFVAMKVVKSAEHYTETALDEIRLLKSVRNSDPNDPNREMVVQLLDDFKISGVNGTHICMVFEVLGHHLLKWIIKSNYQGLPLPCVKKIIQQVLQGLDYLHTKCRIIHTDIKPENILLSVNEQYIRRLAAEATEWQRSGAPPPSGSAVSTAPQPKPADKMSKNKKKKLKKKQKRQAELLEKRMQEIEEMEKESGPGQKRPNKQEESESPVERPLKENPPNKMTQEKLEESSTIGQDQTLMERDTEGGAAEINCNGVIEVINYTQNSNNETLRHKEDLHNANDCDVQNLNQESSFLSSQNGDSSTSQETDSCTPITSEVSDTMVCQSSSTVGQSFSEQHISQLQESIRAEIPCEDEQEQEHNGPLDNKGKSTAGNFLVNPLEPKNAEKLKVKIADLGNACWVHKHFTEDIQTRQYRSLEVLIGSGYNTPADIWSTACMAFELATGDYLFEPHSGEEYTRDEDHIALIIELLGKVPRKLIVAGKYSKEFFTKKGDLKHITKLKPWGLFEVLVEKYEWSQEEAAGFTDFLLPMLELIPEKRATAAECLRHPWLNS
T2 sequence (P78362 whole entry): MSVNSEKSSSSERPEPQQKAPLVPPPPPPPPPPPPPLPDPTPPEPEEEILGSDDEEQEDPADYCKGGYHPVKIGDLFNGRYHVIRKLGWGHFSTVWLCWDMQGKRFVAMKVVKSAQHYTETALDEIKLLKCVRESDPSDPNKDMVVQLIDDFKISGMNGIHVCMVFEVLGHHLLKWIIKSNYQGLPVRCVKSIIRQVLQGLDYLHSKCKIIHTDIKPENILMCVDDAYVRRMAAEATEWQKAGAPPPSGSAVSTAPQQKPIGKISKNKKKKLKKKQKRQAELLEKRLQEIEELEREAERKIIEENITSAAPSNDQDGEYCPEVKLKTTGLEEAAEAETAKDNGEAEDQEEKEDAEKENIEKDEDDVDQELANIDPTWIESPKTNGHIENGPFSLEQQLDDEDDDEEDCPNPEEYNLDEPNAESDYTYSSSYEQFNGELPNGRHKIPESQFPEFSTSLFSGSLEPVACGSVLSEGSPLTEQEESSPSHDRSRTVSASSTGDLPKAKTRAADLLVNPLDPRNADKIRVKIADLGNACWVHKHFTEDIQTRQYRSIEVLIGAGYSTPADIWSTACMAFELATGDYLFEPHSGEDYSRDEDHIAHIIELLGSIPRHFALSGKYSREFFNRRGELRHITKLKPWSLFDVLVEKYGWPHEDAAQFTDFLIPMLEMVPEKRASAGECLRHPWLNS

EC50 [1] [µM] | EC50 [2] [µM] | EC50 [3] [µM] | EC50 [4] [µM] | EC50 [5] [µM] | EC50 [6] [µM] | half-life ([11]; pH 7.4 buffer) [h] | SMILES | EC50 [7] [µM] | further results
25.7 | > 50 | 15.2 | > 50 | 3.62 | > 50 |  | O=c1[nH]cc(F)c(=O)[nH]1 [5-FU, 5-fluorouracil, reference compound] | > 50 | effect on SRPK1 subcellular localization ([8]; 20 μM, 24 h): more diffuse SRPK1 staining pattern, with some nuclear translocation of the kinase; effect on SRPK1 subcellular localization ([8]; 48 h): almost complete nuclear translocation of SRPK1
6.7 | > 50 | > 50 | 31.4 | 28.7 | > 50 |  | Nc1ccn([C@@H]2O[C@H](CO)[C@@H](O)C2(F)F)c(=O)n1 [Gemcitabine, gemcitabine, reference compound] | > 50 | 
11.7 | 13.7 | > 50 | 27.1 | 19.3 | 31.2 | > 48 | CCc1cc2c(cc1-c1ccn(C(=O)NCCOCCOCCNC(=O)Cn3c(=O)[nH]cc(F)c3=O)n1)C(C)(C)c1[nH]c3cc(C#N)ccc3c1C2=O [geo140, (JH-VII-139-1)–(5-FU) conjugate] | 21.5 | IC50 [9]: 0.0221 µM; IC50 [10]: 7.9 µM; reduction in initial concentration ([11]; DMEM, after 24 hours): 10–20%; half-life ([11]; pH 5.2 buffer): > 48 h; reduction in initial concentration ([12]; after 24 hours): 10–20%; SRPK1 distribution in interphase cells [8]: SRPK1 retained a cytoplasmic distribution similar to that seen in untreated controls; number of mitotic cells ([8]; immunofluorescence): significant increase in the number of mitotic cells; mitotic cells (round shape, distinct chromosomal structures) [13]: significant increase in mitotic cells
33.1 | > 50 | > 50 | > 50 | 38.4 | > 50 | > 48 | COc1cc(/C=C(\C#N)C(=O)Nc2nnc(C(F)(F)F)s2)ccc1OCc1ccc(NC(=O)CNC(=O)OC[C@H]2O[C@@H](n3ccc(N)nc3=O)C(F)(F)[C@@H]2O)cc1 [geo15] | > 50 | half-life ([11]; DMEM cell culture medium, DMEM): > 48 h; detection of retro-Knoevenagel reaction product 21 ([11]; DMEM): not observed; concentration of the conjugate remaining ([11]; during the 24 hour period, overall stability profile (all media)): above 50%; detection of retro-Knoevenagel reaction product 21 ([11]; pH buffer media): small percentage; release of SRPIN803 via the 1,6-elimination mechanism ([11]; stability media): no release of SRPIN803; detection of retro-Knoevenagel reaction product 21 [12]: not observed; half-life [12]: > 48 h
